“Also recorded” adds a separate entry of the source.
What was measured:
[1] = tested on: E. coli (Watson strain); experiment: GML and EDTA on the growth of E. coli; assay type: cell-based; details: 24 hours; EDTA 0.05 M to 0.00005 M; GML 100 μg/mL
Description: E. coli (Watson strain) was adjusted to I.2×10^7/mL in Todd Hewitt media. […] Cultures were incubated with shaking (200 RPM) for 24 hours, at which time samples were removed for plate counting. To further assess the combined effects of GML and EDTA, the experiment was carried out as above, and the relative effects on the growth of E. coli of EDTA alone or the combination of GML and EDTA were assessed in direct comparison to GML alone.

[2] = tested on: S. pyogenes (strain 594); experiment: Antibacterial effects of various forms of GML; assay type: cell-based
Description: In order to test for potential differences between the optical isomers, the R form of GML, which is commercially available, was compared to a GML racemic mixture of the R and S forms. […] Antibacterial effects of these forms of GML was assessed on S. pyogenes (strain 594).

[3] = Solubility of Tenofovir in non-aqueous gels; assay type: physicochemical; details: 10 mg/mL
Description: Non-aqueous gels comprised of propylene glycol (73.55% w/w), polyethylene glycol 400 (25% w/w), and hydroxypropyl cellulose (1.25% w/w) at a range of pH from 4.0 to 4.5 were prepared. The anti-HIV drug Tenofovir was added to the gels at a concentration of 10 mg/mL to determine if the drug was soluble in the compositions.

O=C(O)CN(CCN(CC(=O)O)CC(=O)O)CC(=O)O [EDTA, ethylenediaminetetraacetic acid]
anti-bacterial activity on growth of E. coli (CFU/mL) [1]: inhibited the growth of E. coli somewhat, in a dose-dependent manner; also recorded: inhibited the growth of E. coli to some extent at higher concentrations

CCCCCCCCCCCC(=O)OC(CO)CO [Glycerol monolaurate (GML) 2-position]
activity relative to the mixture of 2-position and ⅓-position GML forms [2]: 2 fold

CCCCCCCCCCCC(=O)OC[C@H](O)CO [R form GML]
antibacterial activity, R form versus mixture of R and S forms [2]: same antibacterial activity

C[C@H](Cn1cnc2c(N)ncnc21)OCP(=O)(O)O [Tenofovir]
solubility in non-aqueous gel ([3]; pH 4.0-4.3): not soluble
solubility in non-aqueous gel ([3]; pH 4.4 or 4.5): soluble

CCCCCCCCCCCC(=O)OCC(O)CO (stereo not drawn) [mixture of R and S form GML]
antibacterial activity, R form versus mixture of R and S forms [2]: same antibacterial activity

— patent US12194140B2, “Compositions for topical treatment of microbial infections” (Hennepin Life Sciences, priority 2012, dated 2025)
